The text below walks through data of US20150168420A1, “BIOORTHOGONAL CHEMICAL INDUCERS OF REVERSIBLE DIMERIZATION FOR CONTROL OF PROTEIN FUNCTION IN CELLS” (MAX-PLANCK-GESELLSCHAFT ZUR FÖRDERUNG DER WISSENSCHAFTEN …, priority 2012, published 2015).

Each structure is given as a SMILES string. Entries after “also recorded” stand apart in the source; their conditions may differ.

Broadly, the Kd is a measure of binding affinity in units of concentration.

Experiment [1] has as its target Citrine-eDHFR-PM and Cherry-FKBP WT (Escherichia coli, UniProt P0ABQ4). As to the kind of experiment: Translocation to plasma membrane and FLIM in MCF-7 cells, FKBP WT. In kind it is cell-based. The settings on record: 2 μM, 2 h.
Experiment [2] concerns the target wild type FKBP (Homo sapiens, UniProt P62942). The settings on record: cited from earlier work.
In experiment [3] the target is FKBP(F36V) (Homo sapiens, UniProt P62942, F37V). The settings on record: cited from earlier work.
Experiment [4] deals with Beclin1. The settings on record: starved EGFP-LC3 MCF-7 cells, 1 μM.

As for `CCC(C)(C)C(=O)C(=O)N1CCCCC1C(=O)O[C@H](CCc1ccc(OC)c(OC)c1)c1cccc(NC(=O)CCC(=O)NCCCOCCOCCOCCCNC(=O)COc2c(OC)cc(Cc3cnc(N)nc3N)cc2OC)c1` (some centres unmarked) [SLF-TMP], the “translocation of cognate binding domain FKBP WT to the plasma membrane” value in experiment [1] was “cannot induce translocation”.

As to `CCC(C)(C)C(=O)C(=O)N1CCCC[C@H]1C(=O)O[C@H](CCc1ccc(OC)c(OC)c1)c1cccc(OCC(=O)O)c1` [SLF], the Kd in experiment [2] (read-out: Kd for endogenous FKBP) was 10 to 20 nM. In experiment [3] (in words), the “affinity to FKBP(F36V)” value is given as “low affinity”. With `CCC(C(=O)N1CCCCC1C(=O)O[C@H](CCc1ccc(OC)c(OC)c1)c1cccc(OCC(=O)NCCCOCCOCCOCCCNC(=O)COc2c(OC)cc(Cc3cnc(N)nc3N)cc2OC)c1)c1cc(OC)c(OC)c(OC)c1` (some centres unmarked) [SLF′-TMP], the “autophagy (LC3 puncta) on Beclin1 knock off / knock on” value in experiment [4] is on record as “Inhibition of autophagy”. On to `CCC(C(=O)N1CCCCC1C(=O)O[C@H](CCc1ccc(OC)c(OC)c1)c1cccc(OCC(=O)O)c1)c1cc(OC)c(OC)c(OC)c1` (some centres unmarked) [SLF′], for which the “binding to naturally occurring (unmutated) FKBP” value in experiment [2] (in words) is recorded as “does not bind at all; also recorded: very low affinity”. Also, the “fold lower affinity for wild type FKBP than for mutant FKBP(F36V)” value in experiment [2] (wild type versus F36V) is > 1000 fold. In addition, the dissociation constant Kd in experiment [3] (read-out: Kd for binding domain of FKBP(F36V)) was 0.094 nM. As to `COc1cc(Cc2cnc(N)nc2N)cc(OC)c1OC` [TMP, 5-(3,4,5-trimethoxybenzyl)pyrimidine-2,4-diamine], in experiment [4], the “autophagy (LC3 puncta) on Beclin1 knock off / knock on” value is “Recovery of autophagy”.
